± gives the expanded uncertainty stated by the source.
Experiments:
[1] = 101.33 kPa, Liquid, Vibrating tube method
[2] = activity coefficient (dimensionless); of the first substance listed, at infinite dilution; xn = mol fraction of the nth substance listed; settings: 101.33 kPa, Liquid, Chromatography, x1 = 0

Structure (SMILES)	activity coefficient ([2]; 313.15 K)	activity coefficient ([2]; 333.15 K)	activity coefficient ([2]; 353.15 K)	activity coefficient ([2]; 323.15 K)	activity coefficient ([2]; 343.15 K)	other results
CO[PH](=O)[O-].Cn1cc[n+](C)c1 [1,3-dimethylimidazolium methyl phosphonate]						mass density ([1]; 293.15 K): 1252.5 ± 1.8 kg/m3; mass density ([1]; 303.15 K): 1246.4 ± 1.8 kg/m3; mass density ([1]; 313.15 K): 1241.7 ± 1.8 kg/m3; mass density ([1]; 323.15 K): 1233.4 ± 1.8 kg/m3; mass density ([1]; 333.15 K): 1227.2 ± 1.7 kg/m3; mass density ([1]; 343.15 K): 1220.8 ± 1.7 kg/m3
CCn1cc[n+](C)c1.CO[PH](=O)[O-] [1-ethyl-3-methylimidazolium methyl phosphonate]						mass density ([1]; 293.15 K): 1190.6 ± 1.6 kg/m3; mass density ([1]; 303.15 K): 1184.1 ± 1.6 kg/m3; mass density ([1]; 313.15 K): 1180.1 ± 1.6 kg/m3; mass density ([1]; 323.15 K): 1174 ± 1.6 kg/m3; mass density ([1]; 333.15 K): 1168.7 ± 1.6 kg/m3; mass density ([1]; 343.15 K): 1163.2 ± 1.5 kg/m3
c1ccsc1 [thiophene] + CCn1cc[n+](C)c1.CO[PH](=O)[O-]	1.99 ± 0.14	2.16 ± 0.15	2.5 ± 0.17			activity coefficient ([2]; 373.15 K): 2.64 ± 0.18
c1ccsc1 [thiophene] + CO[PH](=O)[O-].Cn1cc[n+](C)c1	2.47 ± 0.17	2.58 ± 0.18		2.54 ± 0.17	2.6 ± 0.18	
Cc1ccccc1 [toluene] + CCn1cc[n+](C)c1.CO[PH](=O)[O-]	6.53 ± 0.45	6.63 ± 0.45	6.82 ± 0.46			activity coefficient ([2]; 373.15 K): 7.16 ± 0.49
Cc1ccccc1 [toluene] + CO[PH](=O)[O-].Cn1cc[n+](C)c1	11.5 ± 0.78	11.3 ± 0.77		11.4 ± 0.78	11.2 ± 0.77	
ClC(Cl)Cl [trichloromethane] + CCn1cc[n+](C)c1.CO[PH](=O)[O-]	0.277 ± 0.03	0.358 ± 0.033	0.451 ± 0.036			activity coefficient ([2]; 373.15 K): 0.544 ± 0.04
ClC(Cl)Cl [trichloromethane] + CO[PH](=O)[O-].Cn1cc[n+](C)c1	0.39 ± 0.03	0.48 ± 0.04		0.43 ± 0.04	0.51 ± 0.04	
CCCCCCCCCCCCC [tridecane] + CCn1cc[n+](C)c1.CO[PH](=O)[O-]	2560 ± 180	2130 ± 150	1850 ± 130			activity coefficient ([2]; 373.15 K): 1300 ± 89
CCCCCCCCCCCCC [tridecane] + CO[PH](=O)[O-].Cn1cc[n+](C)c1	2380 ± 160	2160 ± 150		2220 ± 150	2120 ± 150	
CCN(CC)CC [triethylamine] + CCn1cc[n+](C)c1.CO[PH](=O)[O-]	30.2 ± 2.1	48 ± 3.3				
CCN(CC)CC [triethylamine] + CO[PH](=O)[O-].Cn1cc[n+](C)c1	9.04 ± 0.62			12.7 ± 0.9		
CCCCCCCCCCC [undecane] + CCn1cc[n+](C)c1.CO[PH](=O)[O-]	1340 ± 93	1080 ± 74	888 ± 61			
CCCCCCCCCCC [undecane] + CO[PH](=O)[O-].Cn1cc[n+](C)c1	1530 ± 110	1400 ± 97		1470 ± 100	1330 ± 92	

Reference: the NIST ThermoML archive (doi:10.1016/j.jct.2015.02.023)
